# Laboratory results reported in US20100184699A1, “Peptide Derived From Prostate-Related Protein As Cancer Vaccine Candidate For Prostate Cancer Patient Who Is Positive For Hla-A3 Super-Type Allele Molecule” (priority 2005, published 2010).
# System: peptide-specific IgG in plasma of prostate cancer patients and healthy donors
# Assay: Detection of peptide-specific IgG in plasma by ELISA
# Assay type: binding, human
# Conditions: for IgG reactive to peptide in plasma: 1:100-diluted plasma
# [1] = Prostate cancer patient 12, A11
# [2] = Prostate cancer patient 17, A33
# [3] = Prostate cancer patient 19, A33
# [4] = Prostate cancer patient 20, A33
# [5] = Prostate cancer patient 14, A33
Sequence,"IgG reactive to peptide in plasma, Total (positive/tested) (Healthy donors)","IgG reactive to peptide in plasma (Prostate cancer patient 2, A31)","IgG reactive to peptide in plasma (Prostate cancer patient 4, A31)","IgG reactive to peptide in plasma (Prostate cancer patient 5, A31)","IgG reactive to peptide in plasma (Prostate cancer patient 6, A31)","IgG reactive to peptide in plasma (Prostate cancer patient 8, A11)","IgG reactive to peptide in plasma (Prostate cancer patient 9, A11)",IgG reactive to peptide in plasma [1],IgG reactive to peptide in plasma [2],IgG reactive to peptide in plasma [3],IgG reactive to peptide in plasma [4],"IgG reactive to peptide in plasma, Total (positive/tested) (Prostate cancer patients)",IgG reactive to peptide in plasma [5],"IgG reactive to peptide in plasma (Healthy donor 3, A31)"
FIDPLGLPDR (PSMA 675-684) [PSMA-derived peptide],0/9,+ (IgG reactive to a corresponding peptide was judged to be positive when a difference of the optical density (OD) in a 1:100-diluted plasma was more than 100),+ (IgG reactive to a corresponding peptide was judged to be positive when a difference of the optical density (OD) in a 1:100-diluted plasma was more than 100),+ (IgG reactive to a corresponding peptide was judged to be positive when a difference of the optical density (OD) in a 1:100-diluted plasma was more than 100),+ (IgG reactive to a corresponding peptide was judged to be positive when a difference of the optical density (OD) in a 1:100-diluted plasma was more than 100),+ (IgG reactive to a corresponding peptide was judged to be positive when a difference of the optical density (OD) in a 1:100-diluted plasma was more than 100),+ (IgG reactive to a corresponding peptide was judged to be positive when a difference of the optical density (OD) in a 1:100-diluted plasma was more than 100),+ (IgG reactive to a corresponding peptide was judged to be positive when a difference of the optical density (OD) in a 1:100-diluted plasma was more than 100),+ (IgG reactive to a corresponding peptide was judged to be positive when a difference of the optical density (OD) in a 1:100-diluted plasma was more than 100),+ (IgG reactive to a corresponding peptide was judged to be positive when a difference of the optical density (OD) in a 1:100-diluted plasma was more than 100),+ (IgG reactive to a corresponding peptide was judged to be positive when a difference of the optical density (OD) in a 1:100-diluted plasma was more than 100),10/20,,
YPANEYAYRR (PSMA 272-281) [PSMA-derived peptide],0/9,+ (IgG reactive to a corresponding peptide was judged to be positive when a difference of the optical density (OD) in a 1:100-diluted plasma was more than 100),+ (IgG reactive to a corresponding peptide was judged to be positive when a difference of the optical density (OD) in a 1:100-diluted plasma was more than 100),,+ (IgG reactive to a corresponding peptide was judged to be positive when a difference of the optical density (OD) in a 1:100-diluted plasma was more than 100),,+ (IgG reactive to a corresponding peptide was judged to be positive when a difference of the optical density (OD) in a 1:100-diluted plasma was more than 100),+ (IgG reactive to a corresponding peptide was judged to be positive when a difference of the optical density (OD) in a 1:100-diluted plasma was more than 100),+ (IgG reactive to a corresponding peptide was judged to be positive when a difference of the optical density (OD) in a 1:100-diluted plasma was more than 100),+ (IgG reactive to a corresponding peptide was judged to be positive when a difference of the optical density (OD) in a 1:100-diluted plasma was more than 100),,8/20,+ (IgG reactive to a corresponding peptide was judged to be positive when a difference of the optical density (OD) in a 1:100-diluted plasma was more than 100),
RIYNVIGTLR [PSMA 354-363],0/9,,,,+ (IgG reactive to a corresponding peptide was judged to be positive when a difference of the optical density (OD) in a 1:100-diluted plasma was more than 100),,,,,,+ (IgG reactive to a corresponding peptide was judged to be positive when a difference of the optical density (OD) in a 1:100-diluted plasma was more than 100),2/20,,
SLYTKVVHYR [PSA 241-250],0/9,,,,,,,,,,,0/20,,
DLVYVNYAR (PSMA 173-181) [PSMA-derived peptide],0/9,,+ (IgG reactive to a corresponding peptide was judged to be positive when a difference of the optical density (OD) in a 1:100-diluted plasma was more than 100),+ (IgG reactive to a corresponding peptide was judged to be positive when a difference of the optical density (OD) in a 1:100-diluted plasma was more than 100),+ (IgG reactive to a corresponding peptide was judged to be positive when a difference of the optical density (OD) in a 1:100-diluted plasma was more than 100),,,+ (IgG reactive to a corresponding peptide was judged to be positive when a difference of the optical density (OD) in a 1:100-diluted plasma was more than 100),,,+ (IgG reactive to a corresponding peptide was judged to be positive when a difference of the optical density (OD) in a 1:100-diluted plasma was more than 100),5/20,,
HYELGEYIR (PAP 78-86) [PAP-derived peptide],1/9,,,,,,,,,,,1/20,+ (IgG reactive to a corresponding peptide was judged to be positive when a difference of the optical density (OD) in a 1:100-diluted plasma was more than 100),+ (IgG reactive to a corresponding peptide was judged to be positive when a difference of the optical density (OD) in a 1:100-diluted plasma was more than 100)
